Results: US10478436B2, “Application of 5-HT6 receptor antagonists for the alleviation of cognitive deficits of down syndrome” (The University of Utah Research Foundation, priority 2011, dated 2019)
Entries after “also recorded” stand apart in the source; their conditions may differ.

Key:
[1] = system: Ts65Dn mice; assay: Exploratory paradigm: ability to recognize a novel object in a novel location (discrimination ratio), Ts65Dn Down syndrome mice; type: in vivo, mouse; conditions: for cognitive performance (discrimination ratio) compared to no treatment / vehicle alone: 9-month-old Ts65Dn mice; for cognitive performance (discrimination ratio) compared to no treatment / vehicle alone / cognition (discrimination ratio) compared to treatment with vehicle alone: 10 mg/kg i.p.; for cognition (discrimination ratio) compared to treatment with vehicle alone: Ts65Dn mice
Protocol: […] Animals were kept on a 12 hour light/dark cycle and experimentation was conducted during the light portion of the cycle. Animals had unlimited access to food and water. All animals used were housed individually to limit the interference of social interaction on cognitive test performance. Animal care and experimental testing procedures conformed to NIH, IACUC, and AALAC standards and protocols.
(§1) Ts65Dn are compared to their control littermates for the effects of excipients and compounds in altering the performance and rescue of deficits in the Ts65Dn DS mouse model.
The apparatus for these experiments consisted of a 40 cm×40 cm Plexiglas box with clear walls and a dark grey floor. The box was placed on a circular white table 1 m in diameter. Four distinct, approximately 20 cm×20 cm black and white shapes were placed 30 cm away from the midpoint of each side of the box. Objects were made from various washable, non-porous materials (plastic, metal, glass, etc.), 2-7 cm in height and varied in color, pattern and texture. To prevent odor cues, all apparatus and objects were disinfected and deodorized with HDQ after each use.
The experimental paradigms utilized the inherent tendency of rodents to differentially explore novel stimuli over familiar stimuli. Exploration was defined as any investigative behavior where mice have active and direct contact with an object. Such behaviors included head orientation and sniffing within <1.0 cm of the object, pawing, biting, or crawling over the objects. Exploration was recorded with an overhead video camera and the duration of exploration was measured with a stopwatch. The week prior to testing, all animals were handled in daily sessions and given an opportunity to habituate to the clear or red apparatus. Each experimental session presented the animal with new object sets and tests were separated by a minimum 48 hour interval. It should be noted that order effects are not normally observed in exploration tasks. Each test consisted of a Habituation Phase, during which mice display reduced exploration over time as a function of habituation, and a Test Phase on novelty detection that is interpreted to reflect recognition memory.
For each of the 7 compounds 1-7, the compound was administered to Ts65Dn mice via i.p. injection at a concentration of 3.0 mg/kg (compound 1) or 10 mg/kg (compounds 2, 3, 4, 5, 6, and 7) body weight delivered in a vehicle of methyl cellulose+0.2% tween 80 solution, while additional Ts65Dn mice were administered with vehicle alone. Each animal received a volume (ml) of drug in vehicle equal to 1% of its body weight (g) or an equal volume of vehicle alone. Forty minutes after the compound is injected, the Habituation phase begins. Therefore, the Test phase occurs 60 minutes after administration of the drug.
For each experiment the animal was placed in center of the clear acrylic box and presented with two different objects spaced 15 cm apart for 15 minutes of free explorations of the apparatus, stimulus objects, and distal environmental cues (Habituation Phase). After the Habituation Phase, a black container was placed over the mouse for a 5-minute Delay. During this delay, one object was exchanged with a new, unfamiliar object in a novel location (novel object), while the other object is replaced with an identical object in the same location (familiar object). Following the delay the black container was removed, beginning the Test Phase and the mouse is allowed to re-explore for 5 minutes (Test Phase).
The duration of exploration of the Novel and Familiar stimuli during the Test Phase was individually measured with stopwatches, rounding to the 0.5 second. […] A zero score would reflect no preference for either the novel or familiar object. A positive score reflects a preference for exploration of the novel object, and is associated with the animal's level of hippocampal function and memory or cognition. […]

[2] = biological target: rat 5-HT6 receptor (Rattus norvegicus, UniProt P31388); conditions: cited from earlier work
Chain of rat 5-HT6 receptor (P31388 whole entry): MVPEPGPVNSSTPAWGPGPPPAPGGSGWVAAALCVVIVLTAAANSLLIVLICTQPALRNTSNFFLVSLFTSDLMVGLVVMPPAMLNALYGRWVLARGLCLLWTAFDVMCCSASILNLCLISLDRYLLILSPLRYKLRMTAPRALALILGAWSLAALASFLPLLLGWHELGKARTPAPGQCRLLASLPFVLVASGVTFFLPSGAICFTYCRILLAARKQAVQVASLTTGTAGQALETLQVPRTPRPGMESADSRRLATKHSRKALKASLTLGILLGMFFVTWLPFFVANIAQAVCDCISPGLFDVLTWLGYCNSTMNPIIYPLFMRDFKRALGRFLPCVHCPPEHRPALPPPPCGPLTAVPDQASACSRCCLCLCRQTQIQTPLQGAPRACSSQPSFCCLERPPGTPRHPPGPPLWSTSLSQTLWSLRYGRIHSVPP

[3] = biological target: human recombinant and native 5-HT6 receptors (Homo sapiens, UniProt P50406); conditions: cited from earlier work
Chain of human recombinant and native 5-HT6 receptors (P50406 whole entry): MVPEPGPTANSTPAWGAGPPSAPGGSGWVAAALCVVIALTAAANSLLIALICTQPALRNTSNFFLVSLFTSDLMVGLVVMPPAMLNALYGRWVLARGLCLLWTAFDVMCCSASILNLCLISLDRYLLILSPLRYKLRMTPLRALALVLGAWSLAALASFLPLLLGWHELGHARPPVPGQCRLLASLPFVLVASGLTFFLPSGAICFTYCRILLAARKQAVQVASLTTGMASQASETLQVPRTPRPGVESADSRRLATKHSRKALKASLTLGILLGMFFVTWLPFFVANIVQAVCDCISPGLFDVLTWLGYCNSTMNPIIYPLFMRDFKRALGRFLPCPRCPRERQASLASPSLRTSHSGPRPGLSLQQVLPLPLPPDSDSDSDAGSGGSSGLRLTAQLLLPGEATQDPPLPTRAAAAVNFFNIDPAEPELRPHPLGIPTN

[4] = biological target: mouse 5-HT6 receptor (Mus musculus, UniProt Q9R1C8); conditions: cited from earlier work
Chain of mouse 5-HT6 receptor (Q9R1C8 whole entry): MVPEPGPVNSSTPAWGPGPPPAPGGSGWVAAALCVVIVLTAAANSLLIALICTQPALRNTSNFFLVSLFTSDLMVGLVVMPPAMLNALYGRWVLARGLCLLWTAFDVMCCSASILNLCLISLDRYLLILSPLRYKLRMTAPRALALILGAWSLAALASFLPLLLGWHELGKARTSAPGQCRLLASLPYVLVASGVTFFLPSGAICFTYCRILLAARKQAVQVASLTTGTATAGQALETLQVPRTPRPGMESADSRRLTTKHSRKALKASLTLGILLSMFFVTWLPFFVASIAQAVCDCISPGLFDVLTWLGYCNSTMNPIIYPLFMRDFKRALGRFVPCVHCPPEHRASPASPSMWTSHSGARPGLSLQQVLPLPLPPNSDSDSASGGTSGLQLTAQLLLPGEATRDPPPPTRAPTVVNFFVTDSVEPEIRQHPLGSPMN

[5] = biological target: T1, 5-HT6 receptor (Homo sapiens, UniProt P50406); conditions: Arnt et al. (2010); cited from earlier work
T1 sequence (P50406 whole entry): as the sequence (P50406 whole entry) above

[6] = system: 18 other receptors; conditions: concentration of 10 μM; cited from earlier work
[7] = biological target: T1, 5-HT6 receptor; conditions: cited from earlier work
[8] = system: scopolamine-induced memory deficits; conditions: Mitchell and Neumaier (2008); cited from earlier work
[9] = Hirst et al. (2006); cited from earlier work
[10] = system: control mice; assay: Exploratory paradigm: ability to recognize a novel object in a novel location (discrimination ratio), control littermates; type: in vivo, mouse; conditions: 3.0 mg/kg i.p.
Protocol: Male Ts65Dn/DnJ mice and male littermates were obtained from a commercial supplier (Jackson Laboratory, Bar Harbor, Me.), and tested at approximately 12-32 weeks of age, at a weight of 25-30 grams. Animals were kept on a 12 hour light/dark cycle and experimentation was conducted during the light portion of the cycle. Animals had unlimited access to food and water. All animals used were housed individually to limit the interference of social interaction on cognitive test performance. Animal care and experimental testing procedures conformed to NIH, IACUC, and AALAC standards and protocols.
as §1
The apparatus for these experiments consisted of a 40 cm×40 cm Plexiglas box with clear walls and a dark grey floor. The box was placed on a circular white table 1 m in diameter. […]
The experimental paradigms utilized the inherent tendency of rodents to differentially explore novel stimuli over familiar stimuli. […] Exploration was recorded with an overhead video camera and the duration of exploration was measured with a stopwatch. […]
The duration of exploration of the Novel and Familiar stimuli during the Test Phase was individually measured with stopwatches, rounding to the 0.5 second. […]

[11] = Test phase 60 minutes after administration

In the case of `O=S(=O)(c1ccccc1)c1cnc2c(N3CCNCC3)cccc2c1` [compound 7, 3-(phenylsulfonyl)-8-(piperazin-1-yl)quinoline], the “cognitive performance (discrimination ratio) compared to no treatment / vehicle alone” value [1] is reported as “significantly improves”.

For `CNc1cc(NS(=O)(=O)c2ccc(N)cc2)nc(NC)n1` [compound 5, 4-amino-N-(2,6-bis(methylamino)pyrimidin-4-yl)benzenesulfonamide], the “recognition of the rat 5-HT6 receptor” value [2] is given as “recognizes the rat”, the “binding to the human 5-HT6 receptor” value [3] is given as “binds the human” and the “binding to the mouse 5-HT6 receptor” value [4] is given as “does not bind; also recorded: does not recognize”. For the same compound, the “cognition (discrimination ratio) compared to treatment with vehicle alone” value (“cognition (discrimination ratio)” for short) ([1]; Test phase 60 minutes after administration, 10 mg/kg) was “does not restore cognition; also recorded: does not improve cognition; also recorded: lack of response; also recorded: did not alter the cognitive abilities”.

In the case of `CN1CCC(c2cn(C)c3ccc(OS(=O)(=O)c4c(F)cccc4F)cc23)CC1` [compound 4, 1-methyl-3-(1-methylpiperidin-4-yl)-1H-indol-5-yl 2,6-difluorobenzenesulfonate], the “cognition (discrimination ratio)” value [1, 11] is reported as “trend to increased discrimination ratios”.

For `O=S(=O)(c1cccc2ccccc12)n1ccc2ccc(N3CCN4CCCC4C3)cc21` (stereo not shown) [compound 3, 2-(1-(naphthalen-1-ylsulfonyl)-1H-indol-6-yl)octahydropyrrolo[1,2-a]pyrazine], the “cognition (discrimination ratio)” value [1, 11] was “significantly increased”.

For `Fc1ccc2c(CCNCc3cccc(OCC(F)(F)C(F)F)c3)c[nH]c2c1` [compound 6, 2-(6-fluoro-1H-indol-3-yl)-N-(3-(2,2,3,3-tetrafluoropropoxyl)benzyl)ethanamine], the “5-HT6 receptor agonist activity” value [5] is listed as “no agonist activity” and the “cognitive performance (discrimination ratio) compared to no treatment / vehicle alone” value [1] is listed as “significant increase”.

For `Cc1ccc2c(c1)c1c(n2CCc2ccc(C)nc2)CCN(C)C1` [dimebolin], the “inhibition of 18 other receptors” value [6] is given as 50% and the “ability to bind as 5-HT6 receptor antagonist” value [7] is given as “approximately 20 times weaker”.

For `COc1ccc2[nH]c(-c3ccccc3)c(CCN(C)C)c2c1` [compound 2, 2-(5-methoxy-2-phenyl-1H-indol-3-yl)-N,N-dimethylethanamine], the “effect on scopolamine-induced memory deficits” value [8] is listed as “reverse” and the “cognition (discrimination ratio)” value [1, 11] is listed as “significantly improves”.

For `COc1ccc(S(=O)(=O)Nc2cc(Cl)cc(Cl)c2OC)cc1N1CCNCC1` [compound 1, N-(3,5-dichloro-2-methoxyphenyl)-4-methoxy-3-(piperazin-1-yl)benzenesulfonamide], the brain penetration [9] is listed as “brain penetrant”, the oral activity [9] is listed as “orally active” and the “mean discrimination ratio, compound+vehicle vs. vehicle alone” value [10] is listed as “did not respond differently”. For the same compound, the “mean discrimination ratio compared to no treatment or treatment with vehicle alone” value ([1]; 3 to 4 month-old Ts65Dn mice, 3.0 mg/kg i.p., Test phase 60 minutes after administration) was “significant increase”, the “discrimination ratio compared to no treatment or treatment with vehicle alone” value ([1]; 8-month-old Ts65Dn mice, 3.0 mg/kg i.p.) was “significantly increased” and the “persistence of the treatment effect on mean discrimination ratio” value ([1]; 8-month-old Ts65Dn mice, tested two weeks after the treatment experiments) was “did not last”.
